Test results as given in patent US20240285670A1, “THERAPEUTIC TREATMENT OF TUMORS BY BLOCKING THE HEME SYNTHESIS-EXPORT AXIS” (Università degli Studi di Torino, priority 2021, published 2024).

Experiments:
C80 cells = test: Flow cytometric analysis of apoptosis in C80 cells; format: cell-based, human; conditions: FLVCR1a-silenced vs scramble shRNA, synchronized C80 cells
Text: (A) Proliferation of Caco2 cells assessed by crystal violet staining at the indicated days; bar=1000 μm. […] Staining quantification is reported in the bar graph as percentage of crystal violet stained area. Data represent mean±SEM, n=4. For statistical analyses, a two-way analysis of variance was used, followed by the Bonferroni correction for multiple group comparisons; *=p<0.05, ***=p<0.001. (B) Caco2 cells viability the day of plating (day 0) and three days after plaiting (day 3). The measure is considered a readout of cell proliferation. […] Data represent mean±SEM, n=3 wells. For statistical analyses, a two-way analysis of variance was used, followed by the Bonferroni correction for multiple group comparisons; *=p<0.05, **=p<0.01. (C, D, E) Representative flow cytometric analyses of apoptosis in synchronized Caco2 (C), SKCO1 (D) and C80 (E) cells. […] Data represent mean±SEM, n=4 wells pooled from two independent experiments. For statistical analyses, an unpaired Student's t-test was used; *=p<0.05, **=p<0.01. […]
Stained cells were analyzed using a FACSCanto II cytofluorimeter and processed with BD FACSDIVA Software v8.1 (BD Biosciences, Milan, IT; http://www.bdbiosciences.com/instruments/software/facsdiva/index.jsp/ RRID:SCR_001456), acquiring at least 10,000 events per sample or 25,000 cells per sample for cell cycle experiments.

SKCO1 cells = test: TCA cycle flux in SKCO1 cells; format: cell-based, human; conditions: FLVCR1a-silenced vs scramble shRNA SKCO1 cells
Text: TCA cycle flux is reported in the centre of the figure and expressed as pmol CO2/h/mg protein. Data represent mean±SEM, n=3. For statistical analyses, an unpaired Student's t-test was used. **=p<0.01. Moreover, TCA cycle enzymes activities are reported in boxes and expressed as mU/mg mitochondrial proteins. Data represent mean±SEM, n=3. For statistical analyses, an unpaired Student's t-test was used; *=p<0.05, ***=p<0.001. […] Results are expressed as pmol CO2/h/mg protein. Data represent mean±SEM, n=3. For statistical analyses, an unpaired Student's t-test was used; *=p<0.05, **=p<0.01.
The glucose flux through TCA cycle was measured by radiolabeling cells with 2 μCi/ml [6-^14C]-glucose (55 mCi/mmol; PerkinElmer, Waltham, MA, USA, catalog n° NEC045X). Cell suspensions were incubated for 1 hour in a closed experimental system to trap the ^14CO2 developed from [^14C]-glucose. The reaction was stopped by injecting 0.5 ml of 0.8N HClO4. The amount of glucose transformed into CO2 through the TCA cycle was calculated as described (Riganti et al., 2004) and expressed as pmoles CO2/h/mg cell proteins.

FLVCR1a shRNA: shRNA specifically down-regulating FLVCR1a without targeting FLVCR1b; pLKO.1 lentiviral clone TRCN0000059599, antisense SEQ ID No.: 2 (antisense TTGCTAATGATGCTGTACTGG; sense CCAGTACAGCATCATTAGCAA)
apoptosis (C80 cells): increased apoptosis | TCA cycle flux (SKCO1 cells): Increased TCA cycle flux
